Measurements taken from article PMC10458307, “New Scaffolds of Proteasome Inhibitors: Boosting Anticancer Potential by Exploiting the Synergy of In Silico and In Vitro Methodologies” (Pharmaceuticals, 2023).
Values joined by “and” are separate entries in the source; they are usually repeats but may differ in a detail not shown here. Equal entries are not always repeated.

Columns and labels:
HCT116 cells = assay: Cell viability, MTT assay, HCT116; assay type: cell-based, human; details: 72 h; for IC50: Homo sapiens, HCT-116, mean ± SD; for percentage of cell viability, MTT, HCT116: at 100 µM
Method: (§1) Whenever possible, additional concentrations were tested and IC50 values were determined.
(§2) Human leukemia Jurkat E6.1 T-cell line and K562-cell line were originally obtained from ATCC Collections (Manassas, VA, USA); human HT-29 and HCT116 colorectal carcinoma-cell lines were obtained from ECACC (Porton Down, Porton, UK). Cells were passaged for less than 6 months after and routinely tested for mycoplasma contamination using Mycoalert detection kit (Lonza, Basel, Switzerland). Jurkat, K562, and HT-29 cells were maintained in Roswell Park Memorial Institute (RPMI) 1640 with GlutaMAX™, supplemented with 1% antibiotic mixture (100 µg/mL streptomycin and 100 U/mL penicillin) and 10% heat-inactivated foetal bovine serum (FBS) (all from Gibco, Thermo Fisher Scientific, Paisley, UK). HCT116 cells were maintained in Dulbecco’s Modified Eagle Medium (DMEM) with GlutaMAX™, supplemented with 1% antibiotic mixture (100 µg/mL streptomycin and 100 U/mL penicillin) and 10% heat-inactivated FBS (all from Gibco, Thermo Fisher Scientific, Paisley, UK). Incubation was performed at 37 °C in a 5% CO2 atmosphere. Cells were routinely passaged every 2 or 3 days at 70–90% confluence; TrypLE Express (Gibco, Thermo Fisher Scientific, Paisley, UK) was used as dissociation agent for adherent cells. Trypan blue (Gibco, Thermo Fisher Scientific, Paisley, UK) was used to assess cell viability using the dye exclusion test.
(§3) To assess cell viability, the MTT assay was performed. Jurkat/K562/HT-29/HCT116 cell lines were seeded in triplicate (10,000 cells/well) in 96-well plates with 50 µL of complete medium and incubated at 37 °C, 5% CO2 for 24 h to allow the cells to adhere to the plate (in the case of adherent cells). […] Untreated cells seeded in triplicate were used as control. The blank was performed in triplicate with 100 µL of culture medium. The cells were incubated with the compounds, in triplicate, in 100 µL of total volume, at 37 °C, 5% CO2 for 72 h. […] In suspension cells (Jurkat), 25 µL of MTT were directly added to each well and, after 3 h 30 m of incubation, 100 µL of DMSO were added to solubilize the formazan crystals; in adherent cells (HT-29 and HCT116), the culture medium was removed, 25 µL of MTT were added to each well and, after 3 h 30 m of incubation, upon MTT removal, 100 µL of DMSO were added to solubilize the formazan crystals. After 15 min, the samples absorbance was measured at 570 nm and the percentage of cell viability was determined.

[1] = Cell viability, MTT assay, HCT116; assay type: cell-based, human; details: human, HCT116 colorectal carcinoma cells; for viability at 72 h, 10 µM: at 10 µM, read-out: percentage of cell viability, MTT, HCT-116; for viability at 72 h, 100 µM: at 100 µM, read-out: percentage of cell viability, MTT, HCT116
Method: as §1, §2, §3

[2] = target: T1, 20S proteasome in HCT116 cell lysates, CT-L activity (Homo sapiens, UniProt P28074); assay: Proteasome inhibition assay in cell lysates, HCT116, CT-L; details: for percentage of proteasome inhibition, CT-L, cell lysates HCT116: at 100 µM; for percentage of proteasome inhibition, CT-L, cell lysates HCT116 / inhibition at 100 µM: Table 2 legend: bortezomib 10 µM; for inhibition at 100 µM: read-out: percentage of proteasome inhibition, CT-L, cell lysates HCT116, at 100 µM; for inhibition at 10 µM: read-out: percentage of proteasome inhibition, CT-L, cell lysates HCT-116, at 10 µM
T1 sequence (P28074 60-263): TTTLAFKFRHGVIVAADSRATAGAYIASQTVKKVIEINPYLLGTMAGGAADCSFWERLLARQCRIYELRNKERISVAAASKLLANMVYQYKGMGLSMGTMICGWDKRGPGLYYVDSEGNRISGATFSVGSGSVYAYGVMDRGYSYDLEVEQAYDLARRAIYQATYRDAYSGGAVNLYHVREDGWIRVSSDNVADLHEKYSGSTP
T1 sequence (P20618 29-241 partner): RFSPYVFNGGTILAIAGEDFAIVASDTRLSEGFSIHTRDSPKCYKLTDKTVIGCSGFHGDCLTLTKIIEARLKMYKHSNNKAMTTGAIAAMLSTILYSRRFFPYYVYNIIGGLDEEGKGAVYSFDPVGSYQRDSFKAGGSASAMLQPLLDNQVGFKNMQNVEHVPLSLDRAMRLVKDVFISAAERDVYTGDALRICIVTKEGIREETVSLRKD
Method: (§4) Cells were obtained from several cultured cell lines: Jurkat, K562, HT-29, and HCT116. Pellets with 20 × 10^6 cells were prepared and washed with cold sterile phosphate buffered saline (PBS), 1×, pH 7.4 (Gibco, Thermo Fisher Scientific, Paisley, UK). […] Cells were resuspended in buffer containing 50 mM TRIS-HCl pH 7.4 (Nzytech, Lisboa, Portugal), 5 mM MgCl2 (≥98% purity, Merck, Hamburg, Germany), 1 mM DTT (Merck, Hamburg, Germany), 2 mM ATP (≥98% purity, Enzo Life Sciences Inc., Farmingdale, NY, USA), and 250 mM saccharose (Merck, Hamburg, Germany). Glass beads (Merck, Hamburg, Germany) equivalent to the volume of the cell suspension were added, and the mixture was vortexed for 2 min at 4 °C. Beads and cell debris were removed using 5 min centrifugation at 1000× g and 4 °C, followed by 20 min of centrifugation at 10,000× g at 4 °C. Cell lysates containing proteasomes were resuspended in “activity buffer” [50 mM TRIS-HCl (pH 7.4), 5 mM MgCl2, 1 mM DTT, 2 mM ATP (≥98% purity, Enzo Life Sciences Inc., Farmingdale, NY, USA), and 500 µM EDTA (≥98% purity, Merck, Hamburg, Germany)]. Protein concentration was determined using the Pierce™ BCA protocol (Thermo Fisher Scientific, Rockford, IL, USA). […] DMSO was added in an equal volume as used for the untreated compounds as a way to assess/control its influence in the assay. Untreated cells were used as control. In each well of a 96-well plate, 25 µL of lysate were seeded in duplicate with 25 µL of the compound to test; in the control, 25 µL of activity buffer were added to the 25 µL of lysate. A blank (50 µL of activity buffer) was added to the wells in quadruplicate. Cell lysates, pre-treated or not with different concentrations of the test compounds, were incubated for 30 min at 37 °C. […] Stock solutions (10 mM) of each substrate were prepared in DMSO, diluted in activity buffer, and 50 µL were added to all wells (final concentration of each substrate = 100 µM), followed by an incubation at 37 °C for 60 min. Samples fluorescence was measured at an excitation wavelength of 360 nm and emission of 465 nm; the fluorescence measures were performed using the GloMax-Multi + Detection System (Promega Corp., Madison, WI, USA). Activity was evaluated in fluorescence units, after being converted to percentage of proteasome inhibition and, whenever possible, expressed as IC50 by plotting the inhibition data of each compound at different concentrations against the log of the concentration of the inhibitor, using the GraphPad Prism software version 7. At least eight different concentrations of the test compounds were used.

Jurkat cells = assay: Cell viability, MTT assay, Jurkat; assay type: cell-based, human; details: 72 h; for IC50: Homo sapiens, Jurkat, mean ± SD; for percentage of cell viability, MTT, Jurkat: at 100 µM
Method: as §1, §2, §3

[3] = Cell viability, MTT assay, Jurkat; assay type: cell-based, human; details: human, Jurkat E6.1 T-cell leukemia cells, read-out: percentage of cell viability, MTT, Jurkat; for viability at 72 h, 10 µM: at 10 µM; for viability at 72 h, 100 µM: at 100 µM
Method: as §1, §2, §3

[4] = target: T2, 20S proteasome in HT-29 cell lysates, C-L activity (Homo sapiens, UniProt P28072); assay: Proteasome inhibition assay in cell lysates, HT-29, C-L; details: for inhibition at 10 µM: read-out: percentage of proteasome inhibition, C-L, cell lysates HT-29, at 10 µM; for inhibition at 100 µM: read-out: percentage of proteasome inhibition, C-L, cell lysates HT-29, at 100 µM
T2 sequence (P28072 35-239 limits assumed): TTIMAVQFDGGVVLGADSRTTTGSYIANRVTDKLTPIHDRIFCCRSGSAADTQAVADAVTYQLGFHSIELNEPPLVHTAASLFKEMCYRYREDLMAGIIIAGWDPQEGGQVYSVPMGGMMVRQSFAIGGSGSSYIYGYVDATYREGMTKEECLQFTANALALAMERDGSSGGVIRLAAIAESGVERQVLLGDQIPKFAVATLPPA
T2 sequence (Q99436 44-277 partner): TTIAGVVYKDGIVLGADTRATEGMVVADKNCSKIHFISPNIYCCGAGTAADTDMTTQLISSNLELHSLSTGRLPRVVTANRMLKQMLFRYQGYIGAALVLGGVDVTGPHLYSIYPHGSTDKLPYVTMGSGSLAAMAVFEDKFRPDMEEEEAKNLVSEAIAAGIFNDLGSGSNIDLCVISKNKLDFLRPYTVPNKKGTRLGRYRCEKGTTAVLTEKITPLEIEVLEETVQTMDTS
Method: as §4

[5] = at 100 µM, Table 2 legend: bortezomib 10 µM
[6] = Table 2 legend: bortezomib 10 µM

Row | Structure (SMILES) | IC50 (HCT116 cells) | viability at 72 h, 10 µM [1] | viability at 72 h, 100 µM [1] | IC50 [2] | percentage of proteasome inhibition, CT-L, cell lysates HCT116 [2] | inhibition at 100 µM [2] | inhibition at 10 µM [2] | IC50 (Jurkat cells) | viability at 72 h, 10 µM [3] | viability at 72 h, 100 µM [3] | IC50 [4] | percentage of proteasome inhibition, C-L, cell lysates HT-29 [4, 5] | inhibition at 10 µM [4] | inhibition at 100 µM [4, 6] | percentage of cell viability, MTT, Jurkat (Jurkat cells) | percentage of cell viability, MTT, HCT116 (HCT116 cells) | percentage of proteasome inhibition, CT-L, cell lysates HCT-116 ([2]; at 10 µM) | percentage of proteasome inhibition, C-L, cell lysates HT-29 ([4]; at 10 µM)
1 | C#CCCN1CCN(c2ccc(-n3c(=O)ccc4cnc5ccc(-c6ccc(N)nc6)cc5c43)cc2C(F)(F)F)CC1 [Compound 4, 9-(6-Aminopyridin-3-yl)-1-(4-(4-(but-3-yn-1-yl)piperazin-1-yl)-3-(trifluoromethyl)phenyl)benzo[h][1,6]naphthyridin-2(1H)-one] | 1.02 µM | 38.4% | 0% | 35.7 µM | 98% | 98% | 22.1% | 1.37 µM | 23.3% | 0% | 35.2 µM | 82% | 0% | 82.1% | – | – | – | –
2 | Cc1ccc2ccccc2c1CSc1ncnc2c1ncn2C1OC(CO)C(O)C1O (stereo not shown) [Compound 1] | 65.7 µM | 95.5% | 24% | 76.4 µM | 90% | 90.2% | 0% | 36.8 µM | 98.7% | 21% | 79.4 µM | 76% | 0% | 76% | 21% | – | – | –
3 | O=C1c2ccccc2C(=O)c2c(Nc3ccc(S(=O)(=O)N(CCO)CCO)cc3)ccc(O)c21 [Compound 2] | – | 98% | 89.1% | 50.9 µM | 74% | 74.2% | 6.93% | – | 80.2% | 77.2% | 62.1 µM | 69% | 6.78% | 69.2% | 77% | 89% | – | –
4 | Cc1ccc(/C(=N/NS(=O)(=O)c2ccc([N+](=O)[O-])cc2)Sc2cc(Cl)c(C)cc2S(N)(=O)=O)cc1 [Compound 3] | – | 100% | 95.2% | – | 33% | 33% | 0% | – | 98.1% | 86% | – | 19% | 0% | 18.6% | 86% | 95% | – | –
5 | CC(C)C[C@H](NC(=O)[C@H](Cc1ccccc1)NC(=O)c1cnccn1)B(O)O [Bortezomib, bortezomib, reference compound] | 0.0107 µM | 0% | 0% | – | 99.14% and 99% | – | – | 0.00648 µM | 0% | 0% | – | 99.05% and 99% | – | – | – | – | 97.94% | 92.93%
6 | CC(C)c1nc(CN(C)C(=O)N[C@@H](CCN2CCOCC2)C(=O)N[C@H](CC[C@H](Cc2ccccc2)NC(=O)OCc2cncs2)Cc2ccccc2)cs1 [Compound 5, cobicistat, reference compound] | 58.4 µM | 98.7% | 23.7% | 95.9 µM | 67% | 66.9% | 0% | 43.8 µM | 93.3% | 0% | – | 29% | 0% | 29.3% | – | 24% | – | –
